According to US9522882B2, “Strigolactam derivatives as plant growth regulating compounds” (Syngenta Participations AG, priority 2011, dated 2016):

Legend:
[1] = test system: Orobanche cumana Wallr. seeds; assay: Orobanche cumana seed germination test on glass fiber filter paper in petri dishes; format: in vivo; details: mean, n = 5 × 100 seeds; for Germination %* at concentration of 0.001 mg I^−1 / Germination %* at concentration of 0.01 mg I^−1 / Germination %* at concentration of 0.1 mg I^−1: preconditioned Orobanche cumana seeds of lot IN153, race F
Method: The effect of compounds of Formula (I) on germination of Orobanche cumana Wallr. seeds was evaluated on glass fiber filter paper (GFFP) in petri dishes. Seeds were preconditioned at moisture and suitable temperature to become responsive to the specific chemical germination stimulants.
Test compounds were dissolved in DMSO (10 000 mg l^−1) and stored at room temperature in a desiccators with desiccants. The stock solutions were dissolved with deionised water to the appropriate final test concentration.
Seeds of O. cumana race ‘F’ were collected from sunflower fields in Manzanilla (Seville, Spain) in 2006 (seed lot 1N146) and 2008 (seed lot 1N153) and stored at room temperature. To separate seeds from heavy organic debris, a modified sucrose floatation technique as described by Hartman & Tanimonure (Plant Disease (1991), 75, p. 494) was applied. Seeds were filled into a separation funnel and stirred in water. When seeds floated to the surface, the water fraction containing heavy debris was discarded. Seeds were re-suspended in 2.5M sucrose solution (specific gravity of 1.20) and heavy debris was allowed to settle down for 60 min. After removing debris, seeds were disinfected in 1% sodium hypochlorite solution and 0.025% (v/v) Tween 20 for 2 min. The seeds were decanted onto two layers of cheesecloth, rinsed with sterile deionised water and re-suspended in sterile deionised water. Two ml of the seed suspension containing approximately 150-400 seeds were spread evenly on two layers of sterile glass fiber filter paper disc ([…]) in Petri dishes (Ø9 cm). After wetting the discs with 3 ml sterile deionised water, petri dishes were sealed with parafilm. Seeds were incubated for 10 days at 20° C. in the dark for seed conditioning. The upper disc with conditioned seeds was briefly dried, transferred to a petri dish lined with a dry GFFP disc, and wetted with 6 ml of the appropriate test solution. The compounds of Formula (I) were tested at concentrations of 0.001, 0.01, and 0.1 mg l^−1. The strigolactone analogue GR24 (commercially available as a mixture of isomers) was included as positive control and 0.001% DMSO as negative control. All treatments were tested in five replicates. Seeds were re-incubated at 20° C. in the dark and examined for germination 10 days later. The radicles of germinated seeds were stained for 5 min with blue ink (MIGROS, Switzerland) in 5% acetic acid according to Long et al. (Seed Science Research (2008), 18, p. 125). After staining, seeds were scanned using a flatbed scanner with an optical resolution of 1200 dpi (PULSTEK, OpticPro ST28) or photographed using a camera stand mounted with a digital SLR camera (Canon EOS 5D). Germination of 100 seeds per replicate was evaluated on digital images. Seeds were considered germinated when the radicle protruded from the seed coat.

[2] = test system: Brassica oleracea cv Botrytis; assay: Standard paper germination test for Brassica (tropical cauliflower seeds, 20° C. in the dark); format: in vivo; details: tropical cauliflower 3C150 (seed batch 11B295), 25 μM; for Gmax (total germination): DMSO treatment = 31.3%
Method: The effect of compounds of Formula (I) on the germination of Brassica oleracea cv Botrytis or common cauliflower was tested on tropical types. […] Germination of a sensitive tropical type at 20° is stimulated by the presence of light.
The tropical seed batch tested was part of seed batches produced as basic seed (for maintenance of the parental line) and were processed accordingly.
Germination was assessed using the standard paper germination test for Brassica: Fifty seeds were placed on blue germination paper, which was moistened with the appropriate solutions, in closed oblong germination boxes. Each condition was tested in duplo. Germination boxes were placed in controlled germination cabinets with the appropriate temperature and light conditions. Germination of seeds was counted at regular intervals. Seeds were considered to be germinated when the radical had protruded the testa and endosperm (radical size approximately 1 mm). Germination kinetics were analyzed using the Germinator analysis tool in order to obtain the parameters: Gmax (maximum germination) and t50 (time needed to reach 50% of the Gmax). The Germinator analysis tool is an add-in in for excel developed by the University of Wageningen: Joosen, R. V. L., J. Kodde, et al. (2010). (“Germinator: A Software Package for High-Throughput Scoring and Curve Fitting of Arabidopsis Seed Germination.” The Plant Journal 62(1): 148-159.)
Test compounds were dissolved in DMSO at a concentration of 50 mM and stored at −20° C. The strigolactone analogue GR24 (commercially available as a racemic mixture of 2 diastereoisomers, referred to as “synthetic strigolactone GR-24” and first prepared by Johnson A. W. & all, Journal of the Chemical Society, Perkin Transactions 1, 1981, page 1734-1743) was included as positive control. Germination solutions were prepared by diluting the stock solutions with demineralized water till 25 μM. As control solutions demineralized water and a 0.05% v/v DMSO solution were used.

[3] = aqueous control (0.001% DMSO) = 0.2% germination
[4] = Table 4, preconditioned seeds of lot IN146, raceF, aqueous control (0.001% DMSO) = 0% germination
[5] = Table 5, preconditioned seeds of lot IN153, raceF, aqueous control (0.001% DMSO) = 0.2% germination
[6] = Table 3, preconditioned seeds of lot IN146, raceF, aqueous control (0.001% DMSO) = 0% germination
[7] = Table 6, preconditioned seeds of lot IN153, raceF, aqueous control (0.001% DMSO) = 0.8% germination

## CC1=C[C@H](O/C=C2/C(=O)N[C@@H]3c4cccc(C#Cc5ccccc5)c4C[C@H]23)OC1=O (relative stereo) [Compound A6]
[1]; [3]
  Germination %* at concentration of 0.001 mg I^−1: 2.6%
  Germination %* at concentration of 0.01 mg I^−1: 40.2%
  Germination %* at concentration of 0.1 mg I^−1: 83.6%

## COC(=O)c1ccc2c(c1)C1NC(=O)/C(=C/O[C@H]3C=C(C)C(=O)O3)[C@H]1C2 (stereo in doubt) [Compound A3, methyl(3E,3aR,8bR)-3-[[(2R)-4-methyl-5-oxo-2H-furan-2-yl]oxymethylene]-2-oxo-1,3a,4,8b-tetrahydroindeno[1,2-b]pyrrole-7-carboxylate]
[2]
  stimulation (extra germination compared to the DMSO treatment, expressed as percentage of the DMSO treatment): 36.7%
  Gmax (total germination): 43.0%
[1]; [4]
  Germination % at concentration of 0.001 mg I^−1: 85.8%
  Germination % at concentration of 0.01 mg I^−1: 82.0%
  Germination % at concentration of 0.1 mg I^−1: 82.6%

## COCC#Cc1cccc2c1C[C@@H]1/C(=C\O[C@H]3C=C(C)C(=O)O3)C(=O)N[C@H]21 (relative stereo) [Compound A5]
[1]; [5]
  Germination % at concentration of 0.001 mg I^−1: 79.0%
  Germination % at concentration of 0.01 mg I^−1: 91.4%
  Germination % at concentration of 0.1 mg I^−1: 99.2%

## C=CCc1cccc2c1C[C@@H]1/C(=C\O[C@H]3C=C(C)C(=O)O3)C(=O)N[C@H]21 (relative stereo) [Compound A1, (3aR*,8bS*, 5′R*)-5-allyl-3-[1-(4-Methyl-5-oxo-2,5-dihydro-furan-2-yloxy)-meth-(E)-ylidene]-3,3a,4,8b-tetrahydro-1H-indeno[1,2-b]pyrrol-2-one]
[1]; [6]
  Germination % at concentration of 0.001 mg I^−1: 85.8%
  Germination % at concentration of 0.01 mg I^−1: 82.0%
  Germination % at concentration of 0.1 mg I^−1: 82.6%

## CC1=C[C@H](O/C=C2/C(=O)N[C@@H]3c4c(cccc4C4CC4)C[C@H]23)OC1=O [Compound A8, (3E,3aR,8bS)-8-cyclopropyl-3-[[(2R)-4-methyl-5-oxo-2H-furan-2-yl]oxymethylene]-1,3a,4,8b-tetrahydroindeno[1,2-b]pyrrol-2-one]
[1]; [3]
  Germination %* at concentration of 0.001 mg I^−1: 81.2%
  Germination %* at concentration of 0.01 mg I^−1: 88.5%
  Germination %* at concentration of 0.1 mg I^−1: 86.8%

## C=Cc1cccc2c1C[C@@H]1/C(=C\O[C@H]3C=C(C)C(=O)O3)C(=O)N[C@H]21 (relative stereo) [Compound A7]
[1]; [7]
  Germination % at concentration of 0.001 mg I^−1: 96.4%
  Germination % at concentration of 0.01 mg I^−1: 96.8%
  Germination % at concentration of 0.1 mg I^−1: 95.4%

## CC1=CC(OC=C2C(=O)NC3c4cccc(-c5nccs5)c4CC23)OC1=O (mixture of isomers) [Compound A12]
[1]; [3]
  Germination %* at concentration of 0.001 mg I^−1: 13.0%
  Germination %* at concentration of 0.01 mg I^−1: 7.0%
  Germination %* at concentration of 0.1 mg I^−1: 26.8%

## C#Cc1cccc2c1C[C@@H]1/C(=C\O[C@H]3C=C(C)C(=O)O3)C(=O)N[C@H]21 [Compound A2, (3E,3aR,8bS)-5-ethynyl-3-[(4-methyl-5-oxo-2H-furan-2-yl)oxymethylene]-1,3a,4,8b-tetrahydroindeno[1,2-b]pyrrol-2-one]
[1]; [6]
  Germination % at concentration of 0.001 mg I^−1: 85.8%
  Germination % at concentration of 0.01 mg I^−1: 82.0%
  Germination % at concentration of 0.1 mg I^−1: 86.2%

## CC1=C[C@H](O/C=C2/C(=O)O[C@@H]3c4ccccc4C[C@H]23)OC1=O [GR24, reference compound]
[2]
  stimulation (extra germination compared to the DMSO treatment, expressed as percentage of the DMSO treatment): 140.0%
  Gmax (total germination): 73.0%
[1]; [5]
  Germination % at concentration of 0.001 mg I^−1: 88.6%
  Germination % at concentration of 0.01 mg I^−1: 96.0%
  Germination % at concentration of 0.1 mg I^−1: 93.8%
[1]; [7]
  Germination % at concentration of 0.001 mg I^−1: 79.8%
  Germination % at concentration of 0.01 mg I^−1: 93.2%
  Germination % at concentration of 0.1 mg I^−1: 96.8%
[1]; [3]
  Germination %* at concentration of 0.001 mg I^−1: 60.8%
  Germination %* at concentration of 0.01 mg I^−1: 83.2%
  Germination %* at concentration of 0.1 mg I^−1: 90.6%

## CC1=CC(OC=C2C(=O)NC3c4cccc(-c5cccnc5)c4CC23)OC1=O (mixture of isomers) [Compound A11]
[1]; [3]
  Germination %* at concentration of 0.001 mg I^−1: 30.0%
  Germination %* at concentration of 0.01 mg I^−1: 65.6%
  Germination %* at concentration of 0.1 mg I^−1: 90.8%

## CC1=CC(OC=C2C(=O)NC3c4cccc(-c5ccco5)c4CC23)OC1=O (mixture of isomers) [Compound A13]
[1]; [3]
  Germination %* at concentration of 0.001 mg I^−1: 13.4%
  Germination %* at concentration of 0.01 mg I^−1: 66.4%
  Germination %* at concentration of 0.1 mg I^−1: 90.0%

## CC#Cc1cccc2c1C[C@@H]1/C(=C\O[C@H]3C=C(C)C(=O)O3)C(=O)N[C@H]21 (relative stereo) [Compound A4]
[1]; [5]
  Germination % at concentration of 0.001 mg I^−1: 97.6%
  Germination % at concentration of 0.01 mg I^−1: 94.4%
  Germination % at concentration of 0.1 mg I^−1: 98.2%

## CC1=CC(OC=C2C(=O)NC3c4cccc(-c5ccccc5)c4CC23)OC1=O (mixture of isomers) [Compound A9]
[1]; [3]
  Germination %* at concentration of 0.001 mg I^−1: 53.4%
  Germination %* at concentration of 0.01 mg I^−1: 84.4%
  Germination %* at concentration of 0.1 mg I^−1: 76.8%

## CC1=CC(OC=C2C(=O)NC3c4cccc(-c5ccncc5)c4CC23)OC1=O (mixture of isomers) [Compound A10]
[1]; [3]
  Germination %* at concentration of 0.001 mg I^−1: 11.2%
  Germination %* at concentration of 0.01 mg I^−1: 18.0%
  Germination %* at concentration of 0.1 mg I^−1: 24.0%
